# Where a name gives a salt, the structure may show the parent alone.
# Assays:
# [1] = Solvent screening: solubility of midazolam hydrochloride in process solvents; type: physicochemical
# Protocol: For each solvent, four test tubes were prepared, containing about 1 g solvent and midazolam hydrochloride at amounts of about 0.1 wt %, 1 wt %, 4 wt % and 7 wt %, respectively. The tubes were thoroughly mixed and were then visually observed and photographed. After 15 minutes of resting, they were again visually observed and photographed, and were then mixed again. After another 1 hour, they were finally visually observed and photographed. It was noted whether there were any undissolved solid material remaining, approximately how much, and whether it had sedimented at the bottom or formed a whitish suspension, and if that suspension was translucent or opaque. No analytical method, e.g., HPLC Assay, was used to actually quantify the precise solubilities because the main aim was just to determine whether the midazolam hydrochloride was predominately dissolved or solid, at 4 wt % and 7 wt % respectively, which represent typical levels for the midazolam hydrochloride content in a wet mix. If midazolam hydrochloride was predominately […] at 7 wt %, the solvent was deemed to be potentially very feasible.
# [2] = XRPD of sedimented material from the solvent screening; type: physicochemical; settings: solvent evaporated at ambient temperature
# Protocol: Test tubes prepared with ethanol and ethyl acetate, respectively, corresponding to the last step in Example 14, were prepared and allowed to sediment overnight. The solvents in each sample of sedimented material were slowly evaporated off at ambient temperature and atmospheric pressure. It was then subjected to the XRPD method described in Example 12 except that only steps 1-2 of that method were performed, and that the reference “API raw material” recorded in step 1 was midazolam hydrochloride and not midazolam base.
compound,measurement,setting,value
Cc1ncc2n1-c1ccc(Cl)cc1C(c1ccccc1F)=NC2 [midazolam hydrochloride],Visual appearance at last observation,"[1]; 1-pentanol, 0.1 wt %",clear
same,Visual appearance at last observation,"[1]; 1-pentanol, 1 wt %",translucent
same,Visual appearance at last observation,"[1]; 1-pentanol, 4 wt %",opaque
same,Visual appearance at last observation,"[1]; 1-pentanol, 7 wt %",opaque
same,Visual appearance at last observation,"[1]; 2-propanol, 0.1 wt %",clear
same,Visual appearance at last observation,"[1]; 2-propanol, 1 wt %",translucent
same,Visual appearance at last observation,"[1]; 2-propanol, 4 wt %",opaque
same,Visual appearance at last observation,"[1]; 2-propanol, 7 wt %",opaque
same,Visual appearance at last observation,"[1]; acetone, 0.1, 1, 4 and 7 wt %",clear supernatant over sedimented
same,Visual appearance at last observation,"[1]; ethanol, 0.1 wt %",clear
same,Visual appearance at last observation,"[1]; ethanol, 1 wt %",clear
same,Visual appearance at last observation,"[1]; ethanol, 4 wt %",opaque
same,Visual appearance at last observation,"[1]; ethanol, 7 wt %",opaque
same,Visual appearance at last observation,"[1]; ethyl acetate, 0.1 wt %",cloudy
same,Visual appearance at last observation,"[1]; ethyl acetate, 1 wt %",opaque
same,Visual appearance at last observation,"[1]; ethyl acetate, 4 wt %",opaque
same,Visual appearance at last observation,"[1]; ethyl acetate, 7 wt %",opaque
same,Solubility (tentative interpretation),[1]; in 1-pentanol,Solubility is between 0.1-1 wt %
same,Solubility (tentative interpretation),[1]; in 2-propanol,Solubility is between 0.1-1 wt %
same,Solubility (tentative interpretation),[1]; in acetone,Solubility is ≤0.1 wt %. Solvent
same,Solubility (tentative interpretation),[1]; in ethanol,Solubility is between 1-4 wt %.
same,Solubility (tentative interpretation),[1]; in ethyl acetate,Solubility is ≤0.1 wt %. Solvent
same,Solubility (tentative interpretation),[1]; in isobutyl acetate,Solubility is ≤0.1 wt %. Solvent
same,Solubility (tentative interpretation),[1]; in methyl acetate,Solubility is ≤0.1 wt %. Solvent
same,Visual appearance at last observation,"[1]; isobutyl acetate, 0.1 wt %",cloudy
same,Visual appearance at last observation,"[1]; isobutyl acetate, 1 wt %",opaque
same,Visual appearance at last observation,"[1]; isobutyl acetate, 4 wt %",opaque
same,Visual appearance at last observation,"[1]; isobutyl acetate, 7 wt %",opaque
same,Visual appearance at last observation,"[1]; methyl acetate, 0.1 wt %",cloudy
same,Visual appearance at last observation,"[1]; methyl acetate, 1 wt %",opaque
same,Visual appearance at last observation,"[1]; methyl acetate, 4 wt %",opaque
same,Visual appearance at last observation,"[1]; methyl acetate, 7 wt %",opaque
same,XRPD identity of sedimented material,[2]; sediment from ethanol,a solid crystalline material that was not midazolam hydrochloride
same,XRPD identity of sedimented material,[2]; sediment from ethyl acetate,appeared to be identical to midazolam hydrochloride

# — patent publication US20260240761A1, “ORAL FILM UNIT DOSAGE FORM” (SWIPP AB, priority 2023, published 2026)
